Reference: ChEMBL document CHEMBL6134895, “Strategic Design and Optimization of Umifenovir Analogues: Balancing Antiviral Efficacy and hERG Toxicity against SARS-CoV-2” (J Med Chem, 2025)
Activity calls are given as the source filed them. The rule behind the calls is not given here.

Assays:
SARS-CoV-2 [1] = assay: Potency index, ratio of Arbidol IC50 to test compound IC50 for antiviral activity against SARS CoV-2 Wuhan infected in African green monkey Vero E6 cells assessed as inhibition of viral replication pretreated for 15 mins followed by compound removal and induction of viral infection for 1 hr and subsequent removal of inoculum and further addition of media containing compound measured after 24 hrs …; type: functional, Severe acute respiratory syndrome coronavirus 2; conditions: time 24.25 hrs
[2] = Stability in human plasma assessed as half life at 2 uM measured up to 120 mins by LC-MS/MS analysis; type: ADME, cell-free
Vero C1008 [3] = assay: (§1) Cytotoxicity against African green monkey Vero E6 cells assessed as cell viability at 5 uM incubated for 48 hrs by MTT assay; type: toxicity, cell-based; conditions: chlorocebus sabaeus, vero c1008, 48 h, 5 µM
[4] = Stability in mouse plasma assessed as half life at 2 uM measured up to 120 mins by LC-MS/MS analysis; type: ADME, cell-free
[5] = Microsomal stability in mouse liver microsomes assessed as half life at 100 uM preincubated for 15 mins followed by NADPH addition measured up to 60 mins by LC-MS/MS analysis; type: ADME, Microsome; conditions: time < 75 min
[6] = Microsomal stability in human liver microsomes assessed as compound remaining at 100 uM preincubated for 15 mins followed by NADPH addition measured after 60 mins by LC-MS/MS analysis; type: ADME, Microsome; conditions: time 75 min, read-out: Stability
[7] = Stability in human plasma assessed as compound remaining at 2 uM measured after 60 mins by LC-MS/MS analysis; type: ADME, cell-free; conditions: read-out: Stability
[8] = target: T1, Voltage-gated inwardly rectifying potassium channel KCNH2 (Homo sapiens, UniProt Q12809); assay: Inhibition of hERG extracted from membrane (unknown origin) incubated for 4 hrs by fluorescence polarization assay; type: toxicity, cell membranes
T1 sequence (Q12809 whole entry): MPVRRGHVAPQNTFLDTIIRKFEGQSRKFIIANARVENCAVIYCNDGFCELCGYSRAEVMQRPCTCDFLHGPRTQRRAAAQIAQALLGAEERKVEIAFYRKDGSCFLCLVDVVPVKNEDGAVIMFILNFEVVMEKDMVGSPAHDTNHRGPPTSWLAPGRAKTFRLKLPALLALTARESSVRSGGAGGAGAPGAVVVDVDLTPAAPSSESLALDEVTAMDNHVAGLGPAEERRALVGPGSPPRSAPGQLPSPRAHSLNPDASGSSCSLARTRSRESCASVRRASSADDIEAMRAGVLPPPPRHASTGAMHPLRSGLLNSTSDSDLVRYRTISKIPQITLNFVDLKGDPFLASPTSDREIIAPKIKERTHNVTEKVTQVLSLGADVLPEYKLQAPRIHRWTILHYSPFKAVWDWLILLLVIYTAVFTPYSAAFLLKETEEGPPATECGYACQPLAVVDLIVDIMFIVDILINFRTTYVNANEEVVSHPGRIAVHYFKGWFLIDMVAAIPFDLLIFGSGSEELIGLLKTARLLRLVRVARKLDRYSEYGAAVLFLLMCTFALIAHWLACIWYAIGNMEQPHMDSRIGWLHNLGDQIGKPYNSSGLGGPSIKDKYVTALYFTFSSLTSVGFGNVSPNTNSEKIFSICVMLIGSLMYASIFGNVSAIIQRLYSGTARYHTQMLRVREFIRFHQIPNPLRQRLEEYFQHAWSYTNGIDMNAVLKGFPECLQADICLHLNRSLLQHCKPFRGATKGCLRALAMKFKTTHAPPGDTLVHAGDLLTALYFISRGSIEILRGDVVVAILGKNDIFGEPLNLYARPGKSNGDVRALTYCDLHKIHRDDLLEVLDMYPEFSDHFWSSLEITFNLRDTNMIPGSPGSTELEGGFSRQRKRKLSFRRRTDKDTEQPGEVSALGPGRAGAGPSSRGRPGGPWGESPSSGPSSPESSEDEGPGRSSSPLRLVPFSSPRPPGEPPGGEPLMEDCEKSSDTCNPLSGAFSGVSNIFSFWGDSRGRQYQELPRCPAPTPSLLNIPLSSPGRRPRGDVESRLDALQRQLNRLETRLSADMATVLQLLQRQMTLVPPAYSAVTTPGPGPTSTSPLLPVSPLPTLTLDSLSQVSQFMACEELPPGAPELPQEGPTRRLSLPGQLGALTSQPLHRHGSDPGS

[9] = Microsomal stability in human liver microsomes assessed as half life at 100 uM preincubated for 15 mins followed by NADPH addition measured up to 60 mins by LC-MS/MS analysis; type: ADME, Microsome; conditions: time < 75 min
SARS-CoV-2 [10] = assay: Antiviral activity against SARS CoV-2 Wuhan infected in African green monkey Vero E6 cells assessed as decrease in viral particles at 0.7 uM incubated for 48 hrs by confocal microscopy; type: functional, organism-based; conditions: Severe acute respiratory syndrome coronavirus 2
[11] = Lipophilicity, LogD of compound in sodium phosphate buffer/n-octanol incubated for 3 hrs by LC-UV analysis; type: physicochemical
[12] = Microsomal stability in mouse liver microsomes assessed as compound remaining at 100 uM preincubated for 15 mins followed by NADPH addition measured after 60 mins by LC-MS/MS analysis; type: ADME, Microsome; conditions: time 75 min, read-out: Stability
[13] = Microsomal stability in human liver microsomes assessed as intrinsic clearance measured per mg protein at 100 uM preincubated for 15 mins followed by NADPH addition measured up to 60 mins by LC-MS/MS analysis; type: ADME, Microsome; conditions: time < 75 min, read-out: CLH
SARS-CoV-2 [14] = assay: (§2) Antiviral activity against SARS CoV-2 Wuhan infected in African green monkey Vero E6 cells assessed as inhibition of viral replication pretreated for 15 mins followed by compound removal and induction of viral infection for 1 hr and subsequent removal of inoculum and further addition of media containing compound measured after 24 hrs by cell-based ELISA; type: functional, organism-based; conditions: for IC50: Severe acute respiratory syndrome coronavirus 2, Wuhan, Vero C1008
SARS-CoV-2 [15] = assay: Antiviral activity against SARS CoV-2 Wuhan infected in African green monkey Vero E6 cells assessed as decrease in green fluorescence at 0.7 uM incubated for 48 hrs by confocal microscopy; type: functional, organism-based; conditions: Severe acute respiratory syndrome coronavirus 2
[16] = Microsomal stability in mouse liver microsomes assessed as intrinsic clearance measured per mg protein at 100 uM preincubated for 15 mins followed by NADPH addition measured up to 60 mins by LC-MS/MS analysis; type: ADME, Microsome; conditions: time < 75 min, read-out: CLH
[17] = Stability in mouse plasma assessed as compound remaining at 2 uM measured after 60 mins by LC-MS/MS analysis; type: ADME, cell-free; conditions: read-out: Stability
SARS-CoV-2 [18] = assay: Antiviral activity against SARS CoV-2 Wuhan infected in African green monkey Vero E6 cells assessed as decrease in spike protein expression at 0.7 uM incubated for 48 hrs by immunofluorescence based analysis; type: functional, organism-based; conditions: Severe acute respiratory syndrome coronavirus 2
[19] = Volume of distribution at steady state in female C57BL/6 mouse at 2 mg/kg, iv; type: ADME, organism-based; conditions: in vivo, read-out: Vdss
SARS-CoV-2 [20] = assay: Antiviral activity against SARS CoV-2 Wuhan infected in African green monkey Vero E6 cells assessed as decrease in viral particles at 0.5 uM incubated for 48 hrs by confocal microscopy; type: functional, organism-based; conditions: Severe acute respiratory syndrome coronavirus 2
[21] = Half life in female C57BL/6 mouse at 2 mg/kg, iv; type: ADME, organism-based; conditions: in vivo
[22] = AUC (0 to infinity) in female C57BL/6 mouse at 20 mg/kg, po; type: ADME, organism-based; conditions: in vivo
SARS-CoV-2 [23] = assay: Antiviral activity against SARS CoV-2 Wuhan infected in African green monkey Vero E6 cells assessed as decrease in green fluorescence at 0.5 uM incubated for 48 hrs by confocal microscopy; type: functional, organism-based; conditions: Severe acute respiratory syndrome coronavirus 2
[24] = AUC (0 to infinity) in female C57BL/6 mouse at 2 mg/kg, iv; type: ADME, organism-based; conditions: in vivo
[25] = Oral bioavailability in female C57BL/6 mouse at 20 mg/kg; type: ADME, organism-based; conditions: in vivo
[26] = Tmax in female C57BL/6 mouse at 20 mg/kg, po; type: ADME, organism-based; conditions: in vivo
SARS-CoV-2 [27] = assay: Antiviral activity against SARS CoV-2 Wuhan infected in African green monkey Vero E6 cells assessed as decrease in spike protein expression at 0.5 uM incubated for 48 hrs by immunofluorescence based analysis; type: functional, organism-based; conditions: Severe acute respiratory syndrome coronavirus 2
[28] = Cmax in female C57BL/6 mouse at 20 mg/kg, po; type: ADME, organism-based; conditions: in vivo
[29] = Clearance in female C57BL/6 mouse at 2 mg/kg, iv; type: ADME, organism-based; conditions: in vivo
SARS-CoV-2 [30] = assay: as §2, with “virus inactivation at 5 uM” for “inhibition of viral replication”, “48” for “24”, “RT-qPCR analysis relative to control” for “cell-based ELISA”; type: functional, Severe acute respiratory syndrome coronavirus 2; conditions: time 48.25 hrs
[31] = target: T1, Voltage-gated inwardly rectifying potassium channel KCNH2; assay: Inhibition of hERG; type: toxicity
[32] = as §1; type: toxicity, cell-based, Vero C1008; conditions: chlorocebus sabaeus, Vero E6 cells, read-out: Activity
Vero C1008 [33] = assay: Cytotoxicity against African green monkey Vero E6 cells assessed as cell viability at 1 uM incubated for 48 hrs by MTT assay; type: toxicity, cell-based; conditions: chlorocebus sabaeus, vero c1008, 48 h
SARS-CoV-2 [34] = assay: as §2, with “virus inactivation at 10 uM” for “inhibition of viral replication”, “48” for “24”, “RT-qPCR analysis relative to control” for “cell-based ELISA”; type: functional, Severe acute respiratory syndrome coronavirus 2; conditions: time 48.25 hrs
SARS-CoV-2 [35] = assay: as §2, with “virus inactivation at 1 uM” for “inhibition of viral replication”, “48” for “24”, “RT-qPCR analysis relative to control” for “cell-based ELISA”; type: functional, Severe acute respiratory syndrome coronavirus 2; conditions: time 48.25 hrs

With `Cc1ccc(Cn2c(CSc3c(C)cc(C)cc3C)c(C(=O)Nc3cnn(C)c3)c3cc(O)c(Br)cc32)cc1` as the compound, how does the “Ratio IC50” value (SARS-CoV-2 [1]) read?
The value was ~13.

What about the half-life at 2 µM [2] of the same compound?
Its half-life at 2 µM is 42 min.

And the Activity (Vero C1008 [3])?
Its Activity is “Non-toxic”.

And the half-life at 2 µM [4]?
The half-life at 2 µM was 52.2 min.

What about the half-life at 100 µM [5] of the same compound?
Its half-life at 100 µM is 22.1 min.

What about the remaining at 1 h, 100 µM [6] of the same compound?
Its remaining at 1 h, 100 µM is 16.5%.

And the remaining at 1 h, 2 µM [7]?
Its remaining at 1 h, 2 µM is 28.6%.

What about the IC50 [8] of the same compound?
The IC50 was > 30000 nM.

And the half-life at 100 µM [9]?
The half-life at 100 µM was 24.5 min.

And the Activity (SARS-CoV-2 [10])?
The Activity was “Active; Activity Was Comparable To Remdesivir”.

What about the logD at 3 h [11] of the same compound?
The logD at 3 h was 1.93.

What about the remaining at 1 h, 100 µM [12] of the same compound?
Its remaining at 1 h, 100 µM is 18%.

What about the microsomal CLint at 100 µM [13] of the same compound?
The microsomal CLint at 100 µM was 28.3 µL/min/mg.

And the IC50 (SARS-CoV-2 [14])?
The IC50 was 700 nM.

And the Activity (SARS-CoV-2 [15])?
Its Activity is “Active”.

And the microsomal CLint at 100 µM [16]?
The microsomal CLint at 100 µM was 25.8 µL/min/mg.

What about the remaining at 1 h, 2 µM [17] of the same compound?
The remaining at 1 h, 2 µM was 42.5%.

What about the Activity (SARS-CoV-2 [18]) of the same compound?
Its Activity is “Active”.

For `Cc1ccc(Cn2c(CSc3c(C)cc(C)cc3C)c(C(=O)N3CCC(N4CCOCC4)CC3)c3cc(O)c(Br)cc32)cc1`, which “Ratio IC50” value (SARS-CoV-2 [1]) is on record?
The value was ~13.

And the half-life at 2 µM [2]?
Its half-life at 2 µM is 41.1 min.

What about the Vd [19] of the same compound?
Its Vd is 13.4 L/kg.

And the Activity (SARS-CoV-2 [20])?
The Activity was “Active; Activity Was Comparable To Remdesivir”.

What about the Activity (Vero C1008 [3]) of the same compound?
The Activity was “Non-toxic”.

And the half-life at 2 µM [4]?
Its half-life at 2 µM is 53.5 min.

What about the half-life at 100 µM [5] of the same compound?
Its half-life at 100 µM is 26.9 min.

What about the half-life [21] of the same compound?
Its half-life is 86.4 min.

What about the AUC(0-inf) [22] of the same compound?
Its AUC(0-inf) is 1190 ng·h/mL.

And the Activity (SARS-CoV-2 [23])?
Its Activity is “Active”.

What about the AUC(0-inf) [24] of the same compound?
The AUC(0-inf) was 352 ng·h/mL.

And the bioavailability [25]?
Its bioavailability is 33.9%.

And the remaining at 1 h, 100 µM [6]?
The remaining at 1 h, 100 µM was 11.4%.

What about the remaining at 1 h, 2 µM [7] of the same compound?
Its remaining at 1 h, 2 µM is 27.1%.

What about the Tmax [26] of the same compound?
Its Tmax is 120 min.

And the Activity (SARS-CoV-2 [27])?
Its Activity is “Active”.

And the IC50 [8]?
Its IC50 is 15900 nM.

What about the half-life at 100 µM [9] of the same compound?
Its half-life at 100 µM is 19.8 min.

What about the logD at 3 h [11] of the same compound?
The logD at 3 h was 2.45.

And the remaining at 1 h, 100 µM [12]?
The remaining at 1 h, 100 µM was 14.7%.

And the microsomal CLint at 100 µM [13]?
Its microsomal CLint at 100 µM is 35 µL/min/mg.

What about the Cmax [28] of the same compound?
The Cmax was 148 ng/mL.

And the clearance [29]?
Its clearance is 92.4 mL/min/kg.

What about the IC50 (SARS-CoV-2 [14]) of the same compound?
Its IC50 is 670 nM.

What about the microsomal CLint at 100 µM [16] of the same compound?
The microsomal CLint at 100 µM was 31.3 µL/min/mg.

What about the remaining at 1 h, 2 µM [17] of the same compound?
Its remaining at 1 h, 2 µM is 44%.

For `CCOC(=O)c1c(CSc2ccccc2)n(C)c2cc(Br)c(O)c(CN(C)C)c12` [UMIFENOVIR], which Activity (Vero C1008 [3]) is on record?
The Activity was “Non-toxic”.

What about the IC50 [8] of the same compound?
The IC50 was 540 nM.

What about the Activity (SARS-CoV-2 [30]) of the same compound?
The Activity was <90%.

And the IC50 [31]?
Its IC50 is 540 nM.

And the IC50 (SARS-CoV-2 [14])?
The IC50 was 9000 nM.

Which viability at 48 h, 5 µM [32] does the source give for `CCOC(=O)c1c(CSc2ccc(C)cc2C)n(C)c2cc(Br)c(O)cc12` here?
The viability at 48 h, 5 µM was 85%.

And the Activity (Vero C1008 [33])?
The Activity was “Non-toxic”.

And the inhibition (SARS-CoV-2 [14]; Severe acute respiratory syndrome coronavirus 2, time 24.25 hrs)?
The inhibition was “inactive”.

And the Activity (SARS-CoV-2 [34])?
Its Activity is >99.9%.

And the Activity (SARS-CoV-2 [35])?
Its Activity is >95%.
